In paper PMC8838415, “Discovery of Novel Pleuromutilin Derivatives as Potent Antibacterial Agents for the Treatment of MRSA Infection” (Molecules, 2022):
≈ marks a conversion by molar mass, not a printed value.

Key:
[1] = system: methicillin-resistant S. aureus (ATCC 43300); assay: MIC and MBC, broth dilution, MRSA ATCC 43300; format: cell-based; details: Staphylococcus aureus
Procedure: (§1) The synthesized pleuromutilin derivatives 8–30 were tested against four Gram-positive bacteria (MRSA ATCC 43300, S. aureus ATCC 29213 and two clinical strains of S. aureus (AD3 and 144) isolated from Guangdong Province). Tiamulin was used as the positive control in this experiment.
(§2) MIC values were tested following our previous work. The derivatives were dissolved in an aqueous solution of 2.5% tween-80 and 2.5% DMSO to make a solution with a concentration of 1000 µg/mL. The solution was diluted 12 times with MH broth to give a concentration range of 32–0.01 µg/mL. The bacteria (5 × 10^5 CFU/mL) were added in each well. For each compound concentration, three parallel experiments were set. The 96-well plate was incubated for 22–26 h at 37 °C. The MIC value was recorded as the minimal concentration that inhibits the visible growth of tested bacteria completely.
(§3) The MBC of these pleuromutilin derivatives were tested according to a previously reference. […] Then, the values of MBC were determined by laying 100 μL aliquots from the wells onto the MH agar plates without visible growth. The MH agar plate was cultured for a further 22–26 h at 37 °C.

S. aureus (144) = assay: MIC and MBC, broth dilution, S. aureus 144; format: cell-based; details: Staphylococcus aureus; S. aureus 144 (clinical strain)
Procedure: as §1, §2, §3

S. aureus (ATCC 29213) = assay: MIC and MBC, broth dilution, S. aureus ATCC 29213; format: cell-based; details: Staphylococcus aureus, ATCC29213
Procedure: as §1, §2, §3

50S ribosome = assay: SPR interaction and affinity analysis; format: binding, S. aureus ATCC 43300; details: 4 °C; for Avg ka / Avg kd: 1:1 Langmuir binding; for Kd: KD = Kd/Ka
Procedure: S. aureus ATCC 43300 was used to prepare the 50S ribosomal subunit the same way as described previously. Cells were grown overnight in Brain Heart Infusion broth at 37 °C and harvested for 1.5 h at an OD600. Cells were washed with 10 mM Tris-HCl twice at pH = 7.5, and resuspended in 5 mL buffer A (20 mM HEPES-HCl pH = 7.5, 21 mM Mg(OAc)2, 100 mM NH4Cl, 1 mM DTT, 1 mM EDTA). Cells were broken by an ultrasound crusher. The lysate was centrifuged for 90 min at 20,000× g to clear cell debris.
The solution was layered on a sucrose cushion of 15 mL (10 mM Hepes-KOH pH 7.5, 25 mM Mg(OAc)2, 500 mM KCl, […], 1 mM DTT, 0.5 mM EDTA). Centrifugation was carried out for 15 h at 45,000 rpm using an ultracentrifuge Beckman (Beckman Coulter, Shanghai, China), Type 70Ti rotor. The crude ribosome pellet was resuspended in buffer E (10 mM Hepes-KOH pH 7.5, 10 mM Mg(OAc)2, 100 mM KCl, 1 mM DTT, 0.5 mM EDTA), then layered on 9 mL of 7–30% sucrose gradient and centrifuged in an ultracentrifuge Beckman, type SW40Ti rotor at 17,100 rpm for 15 h. The gradient was analyzed on the AKTA explorer system (Amersham, UK). The fractions corresponding to the 50S ribosomal subunit were collected and further subjected to precipitation by PEG 20,000. The 50S ribosomal subunit pellet was gently dissolved in 200 µL of storage buffer (10 mM HEPES-HCl pH = 7.5, 10 mM Mg(OAc)2, 15 mM KCl, 60 mM NH4Cl, 1 mM DTT) and stored at −80 °C.
SPR affinity analysis was performed on the bScreen LB 991 Label-free Microarray System (Berthold Technologies, Black Forest, Germany) at 4 °C and Biodot AD-1520 Array Printer (BIODOT Inc., Irvine, CA, USA) with a Photo-cross-linker SensorCHIP™. Concentrations of each compound were diluted to 100 μM with DMSO as the printing working solution for immobilization. A Biodot AD-1520 Array Printer (BIODOT Inc., CA, USA) was used to control the photo-cross-linker sensor chip and print samples. Each sample was printed four times. In order to check the chip quality and check whether the detection system works, DMSO was used as a system-negative control and rapamycin as a positive control. All positive control dots were divided into four groups and printed on the four corners of the sensor chip. The sensor chip was dried in vacuum after the array print and quickly transferred to a spectra radiator for a photo cross-linking reaction. The sensor chip was washed with C2H5OH, DMF and H2O in turn and evaporated in a N2 atmosphere for 15 min. Then, the Flowcell Cover were assembled.
The 50S ribosome was diluted separately to 200 nM, 400 nM, 800 nM, 1600 nM and 3200 nM with PBST (pH = 7.4, 0.1% Tween 20). Different concentrations of ribosome solutions were injected at a flow rate of 0.5 μL⋅s^−1 for 600 s at the associating stage at 4 °C, followed by PBST at a flow rate of 0.5⋅μL·s^−1 for 360 s at each dissociating stage. Then, the surface was regenerated with Glycine-HCl (pH = 2.0) at a flow rate of 2⋅μL·s^−1 for 300 s.
The raw data of the binding process of compounds and the 50S ribosome were recorded in real time. We compared the response unit (RU) of surface resonance to determine the different binding affinity between each sample dot. The process and analysis of association rate constants (Ka) and dissociation rate constants (Kd) and the equilibrium dissociation constant (KD, Kd/Ka) were performed using the data analysis software of the bScreen LB 991 Label-free Microarray System according to a single-site binding model (1:1 Langmuir binding) with mass transfer limitations for binding kinetics determination.

S. aureus (AD3) = assay: MIC and MBC, broth dilution, S. aureus AD3; format: cell-based; details: Staphylococcus aureus; S. aureus AD3 (clinical strain)
Procedure: as §1, §2, §3

Structure (SMILES)	MBC [1] [µg/mL]	MIC [1] [µg/mL]	MBC (S. aureus (144)) [µg/mL]	MIC (S. aureus (144)) [µg/mL]	melting point [°C]	MBC (S. aureus (ATCC 29213)) [µg/mL]	MIC (S. aureus (ATCC 29213)) [µg/mL]	Avg ka (50S ribosome) [M⁻¹ s⁻¹]	Avg kd (50S ribosome) [s⁻¹]	Kd (50S ribosome) [µM]	MBC (S. aureus (AD3)) [µg/mL]	MIC (S. aureus (AD3)) [µg/mL]
C=C[C@]1(C)C[C@@H](OC(=O)CNCCCc2ccccc2)[C@]2(C)[C@H](C)CC[C@]3(CCC(=O)[C@H]32)[C@@H](C)[C@@H]1O [Compound 19, 22-(3-Phenylpropylamineyl)-22-deoxypleuromutilin]	2 (≈ 4.03 µM)	1 (≈ 2.02 µM)	8 (≈ 16.1 µM)	4 (≈ 8.07 µM)	83 to 84	4 (≈ 8.07 µM)	2 (≈ 4.03 µM)	3110	0.000469	0.151	4 (≈ 8.07 µM)	1 (≈ 2.02 µM)
C=C[C@]1(C)C[C@@H](OC(=O)CNCCCCCCCCCCCC)[C@]2(C)[C@H](C)CC[C@]3(CCC(=O)[C@H]32)[C@@H](C)[C@@H]1O [Compound 23, 22-Dodecylamineyl-22-deoxypleuromutilin]	32 (≈ 58.6 µM)	32 (≈ 58.6 µM)	> 32	32 (≈ 58.6 µM)	75 to 77	> 32	32 (≈ 58.6 µM)	24100	0.0011	0.0456	> 32	32 (≈ 58.6 µM)
C=C[C@]1(C)C[C@@H](OC(=O)CN2CCOCC2)[C@]2(C)[C@H](C)CC[C@]3(CCC(=O)[C@H]32)[C@@H](C)[C@@H]1O [Compound 29, 22-Morpholine-22-deoxypleuromutilin]	1 (≈ 2.23 µM)	1 (≈ 2.23 µM)	4 (≈ 8.94 µM)	2 (≈ 4.47 µM)	157 to 159	2 (≈ 4.47 µM)	2 (≈ 4.47 µM)	1.57	0.872	–	8 (≈ 17.9 µM)	2 (≈ 4.47 µM)
C=C[C@]1(C)C[C@@H](OC(=O)CNc2ccc(Cl)cc2)[C@]2(C)[C@H](C)CC[C@]3(CCC(=O)[C@H]32)[C@@H](C)[C@@H]1O [Compound 11, 22-(4-Chloroanilineyl)-22-deoxypleuromutilin]	0.25 (≈ 0.512 µM)	0.12 (≈ 0.246 µM)	2 (≈ 4.1 µM)	1 (≈ 2.05 µM)	94 to 95	1 (≈ 2.05 µM)	0.5 (≈ 1.02 µM)	–	0.0019	51.8	1 (≈ 2.05 µM)	0.25 (≈ 0.512 µM)
C=C[C@]1(C)C[C@@H](OC(=O)CNCCCCCCCCCCCCCCCC)[C@]2(C)[C@H](C)CC[C@]3(CCC(=O)[C@H]32)[C@@H](C)[C@@H]1O [Compound 24, 22-Hexadecylamineyl-22-deoxypleuromutilin]	> 32	32 (≈ 53.2 µM)	> 32	32 (≈ 53.2 µM)	76 to 79	> 32	32 (≈ 53.2 µM)	–	0.0375	993	> 32	> 32
